Measurements: publication PMC10046369, “Low-Affinity/High-Selectivity Dopamine Transport Inhibition Sufficient to Rescue Cognitive Functions in the Aging Rat” (Biomolecules, 2023)

Experiments:
Assay in all cases: biochemical
Design in all cases: KINOMEscan competition binding panel, per cent of control
Details in all cases: read-out: %Ctrl @ 2800nM
BMPR1B = BMPR1B (Homo sapiens, UniProt O00238)
Protocol: (§1) A panel of binding assays covering 450 human kinases and disease-relevant mutations was performed by DiscoverX (KINOMEscan®, Freemont, CA, USA) according to the standard and validated protocol defined by the contractor. […] Kinase binding assays This study was outsourced to DiscoverX (KINOMEscan®, Freemont, CA, USA) and is compliant with the corresponding project BUY004-01-p-00001. […] Results are reported as percent control (% Ctrl), where lower numbers indicate stronger hits in the matrix on the following page(s). %Ctrl calculation: ((test compound signal-positive control signal) / (negative control signal – positive control signal)) x 100.

BMX = BMX (Homo sapiens, UniProt P51813)
Chain of BMX (P51813 whole entry): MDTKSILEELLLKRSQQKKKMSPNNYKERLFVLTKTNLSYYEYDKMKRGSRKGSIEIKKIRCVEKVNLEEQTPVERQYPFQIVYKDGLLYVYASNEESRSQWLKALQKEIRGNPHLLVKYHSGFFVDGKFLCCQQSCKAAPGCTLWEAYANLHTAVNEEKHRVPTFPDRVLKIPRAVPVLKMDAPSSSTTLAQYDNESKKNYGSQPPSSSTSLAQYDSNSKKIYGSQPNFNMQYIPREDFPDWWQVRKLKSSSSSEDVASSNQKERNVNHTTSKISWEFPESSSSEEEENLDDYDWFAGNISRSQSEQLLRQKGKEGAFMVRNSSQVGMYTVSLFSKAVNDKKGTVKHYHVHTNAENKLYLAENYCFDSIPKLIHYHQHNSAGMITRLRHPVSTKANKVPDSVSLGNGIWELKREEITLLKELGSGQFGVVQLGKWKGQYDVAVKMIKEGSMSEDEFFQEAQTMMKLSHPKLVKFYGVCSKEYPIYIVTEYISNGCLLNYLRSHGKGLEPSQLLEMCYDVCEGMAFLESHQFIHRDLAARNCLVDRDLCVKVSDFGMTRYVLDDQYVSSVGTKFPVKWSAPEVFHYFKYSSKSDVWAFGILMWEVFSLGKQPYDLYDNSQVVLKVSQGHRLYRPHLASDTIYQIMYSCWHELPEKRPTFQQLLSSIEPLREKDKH
Protocol: as §1

CDK3 = CDK3 (Homo sapiens, UniProt Q00526)
Chain of CDK3 (Q00526 whole entry): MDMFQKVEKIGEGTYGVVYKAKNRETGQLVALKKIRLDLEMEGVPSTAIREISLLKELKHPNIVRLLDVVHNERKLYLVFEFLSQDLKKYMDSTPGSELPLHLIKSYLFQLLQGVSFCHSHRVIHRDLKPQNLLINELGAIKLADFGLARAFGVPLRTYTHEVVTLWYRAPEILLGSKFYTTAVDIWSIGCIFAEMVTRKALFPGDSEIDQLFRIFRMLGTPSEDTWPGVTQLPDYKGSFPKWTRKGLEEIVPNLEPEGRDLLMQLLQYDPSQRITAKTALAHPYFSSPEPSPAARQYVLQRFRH
Protocol: as §1

CDK4-cyclinD3 = biological target: T1, CDK4-cyclinD3 (Homo sapiens, UniProt P11802)
T1 construct: cyclinD3
Protocol: as §1

CSNK1D = CSNK1D (Homo sapiens, UniProt P48730)
Protocol: as §1

EGFR(G719C) = EGFR(G719C) (Homo sapiens, UniProt P00533, G719C)
Protocol: as §1

FLT3(D835H) = FLT3(D835H) (Homo sapiens, UniProt P36888, D835H)
Protocol: as §1

FLT4 = FLT4 (Homo sapiens, UniProt P35916)
Chain of FLT4 (P35916 whole entry): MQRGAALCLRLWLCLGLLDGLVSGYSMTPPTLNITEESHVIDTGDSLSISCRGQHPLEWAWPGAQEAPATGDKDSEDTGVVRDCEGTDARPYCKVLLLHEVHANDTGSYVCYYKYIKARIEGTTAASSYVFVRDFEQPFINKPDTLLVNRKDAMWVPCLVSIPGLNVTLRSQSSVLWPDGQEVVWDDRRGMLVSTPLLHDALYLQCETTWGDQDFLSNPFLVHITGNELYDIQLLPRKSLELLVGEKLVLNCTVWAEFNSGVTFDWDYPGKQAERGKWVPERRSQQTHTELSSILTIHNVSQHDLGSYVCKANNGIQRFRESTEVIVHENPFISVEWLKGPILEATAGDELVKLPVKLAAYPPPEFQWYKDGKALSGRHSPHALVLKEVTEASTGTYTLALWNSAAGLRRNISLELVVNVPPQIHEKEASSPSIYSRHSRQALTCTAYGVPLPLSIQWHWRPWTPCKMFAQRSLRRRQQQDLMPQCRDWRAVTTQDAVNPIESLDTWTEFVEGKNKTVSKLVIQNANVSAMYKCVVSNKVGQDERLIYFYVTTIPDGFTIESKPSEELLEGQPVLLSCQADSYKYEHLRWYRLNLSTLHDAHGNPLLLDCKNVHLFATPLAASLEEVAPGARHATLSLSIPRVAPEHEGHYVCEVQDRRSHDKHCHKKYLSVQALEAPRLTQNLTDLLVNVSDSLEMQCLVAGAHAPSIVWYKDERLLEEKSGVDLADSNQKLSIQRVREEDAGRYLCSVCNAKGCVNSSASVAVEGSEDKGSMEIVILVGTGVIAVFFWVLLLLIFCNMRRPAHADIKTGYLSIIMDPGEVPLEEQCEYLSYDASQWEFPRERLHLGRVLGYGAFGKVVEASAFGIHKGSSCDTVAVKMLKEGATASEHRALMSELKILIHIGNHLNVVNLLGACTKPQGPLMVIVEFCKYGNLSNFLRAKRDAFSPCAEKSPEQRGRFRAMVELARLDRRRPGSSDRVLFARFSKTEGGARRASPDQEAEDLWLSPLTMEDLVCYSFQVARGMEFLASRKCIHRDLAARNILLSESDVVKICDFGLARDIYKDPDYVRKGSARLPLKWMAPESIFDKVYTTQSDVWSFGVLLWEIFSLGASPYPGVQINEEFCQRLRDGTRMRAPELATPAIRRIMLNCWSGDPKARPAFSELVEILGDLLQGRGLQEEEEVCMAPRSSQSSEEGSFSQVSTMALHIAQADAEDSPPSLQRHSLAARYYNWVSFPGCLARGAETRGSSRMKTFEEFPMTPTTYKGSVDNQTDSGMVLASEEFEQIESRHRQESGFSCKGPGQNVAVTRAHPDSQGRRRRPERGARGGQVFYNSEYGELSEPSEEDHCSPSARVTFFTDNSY
Protocol: as §1

IKK-alpha = biological target: T2, IKK-alpha (Homo sapiens, UniProt O15111)
T2 construct: gene CHUK
Protocol: as §1

IRAK3 = IRAK3 (Homo sapiens, UniProt Q9Y616)
Chain of IRAK3 (Q9Y616 whole entry): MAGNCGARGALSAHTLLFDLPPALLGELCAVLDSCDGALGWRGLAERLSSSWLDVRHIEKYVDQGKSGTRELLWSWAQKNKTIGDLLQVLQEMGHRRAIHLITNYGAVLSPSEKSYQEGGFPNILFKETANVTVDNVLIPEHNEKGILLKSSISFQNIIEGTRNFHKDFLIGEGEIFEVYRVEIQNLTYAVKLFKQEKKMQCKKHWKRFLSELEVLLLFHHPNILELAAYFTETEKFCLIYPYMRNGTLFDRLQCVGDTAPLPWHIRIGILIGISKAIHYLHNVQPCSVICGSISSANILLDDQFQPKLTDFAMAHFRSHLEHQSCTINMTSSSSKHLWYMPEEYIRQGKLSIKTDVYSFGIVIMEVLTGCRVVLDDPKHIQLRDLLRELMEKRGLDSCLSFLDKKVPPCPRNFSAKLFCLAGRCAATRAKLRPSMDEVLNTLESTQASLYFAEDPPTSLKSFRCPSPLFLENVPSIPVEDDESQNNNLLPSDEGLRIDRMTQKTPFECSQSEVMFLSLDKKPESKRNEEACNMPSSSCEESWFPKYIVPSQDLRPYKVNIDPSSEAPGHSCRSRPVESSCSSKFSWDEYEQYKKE
Protocol: as §1

JNK1 = biological target: T3, JNK1 (Homo sapiens, UniProt P45983)
T3 construct: gene MAPK8
Protocol: as §1

LRRK2 = LRRK2 (Homo sapiens, UniProt Q5S007)
Protocol: as §1

LYN = LYN (Homo sapiens, UniProt P07948)
Protocol: as §1

MAPKAPK2 = MAPKAPK2 (Homo sapiens, UniProt P49137)
Protocol: as §1

MEK1 = biological target: T4, MEK1 (Homo sapiens, UniProt Q02750)
T4 construct: gene MAP2K1
T4 sequence (Q02750 whole entry): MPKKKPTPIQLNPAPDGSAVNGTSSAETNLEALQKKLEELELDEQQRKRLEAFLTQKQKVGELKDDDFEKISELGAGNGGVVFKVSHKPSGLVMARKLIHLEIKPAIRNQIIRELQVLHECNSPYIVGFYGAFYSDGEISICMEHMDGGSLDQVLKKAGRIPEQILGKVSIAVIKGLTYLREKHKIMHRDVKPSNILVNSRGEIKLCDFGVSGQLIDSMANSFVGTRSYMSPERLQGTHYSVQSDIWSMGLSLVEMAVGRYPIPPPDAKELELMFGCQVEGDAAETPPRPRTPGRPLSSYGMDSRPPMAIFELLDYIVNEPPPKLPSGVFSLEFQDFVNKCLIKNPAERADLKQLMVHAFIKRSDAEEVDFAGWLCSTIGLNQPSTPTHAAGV
Protocol: as §1

MST4 = biological target: T5, MST4 (Homo sapiens, UniProt Q9P289)
T5 construct: gene STK26
T5 sequence (Q9P289 whole entry): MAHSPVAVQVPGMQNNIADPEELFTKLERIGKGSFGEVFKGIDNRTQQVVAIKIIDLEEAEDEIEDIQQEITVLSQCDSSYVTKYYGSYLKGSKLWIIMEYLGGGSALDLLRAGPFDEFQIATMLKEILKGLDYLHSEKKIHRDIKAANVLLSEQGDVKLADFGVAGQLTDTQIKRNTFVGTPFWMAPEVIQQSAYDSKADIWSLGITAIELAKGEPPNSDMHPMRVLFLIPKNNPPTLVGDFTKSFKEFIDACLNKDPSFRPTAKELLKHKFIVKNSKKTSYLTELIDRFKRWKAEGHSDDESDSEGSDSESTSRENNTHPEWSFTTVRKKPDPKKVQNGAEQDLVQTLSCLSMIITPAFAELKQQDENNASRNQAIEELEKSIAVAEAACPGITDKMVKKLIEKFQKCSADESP
Protocol: as §1

NEK4 = NEK4 (Homo sapiens, UniProt P51957)
Protocol: as §1

PCTK1 = biological target: T6, PCTK1 (Homo sapiens, UniProt Q00536)
T6 construct: gene CDK16
Protocol: as §1

PCTK2 = biological target: T7, PCTK2 (Homo sapiens, UniProt Q00537)
T7 construct: gene CDK17
T7 sequence (Q00537 whole entry): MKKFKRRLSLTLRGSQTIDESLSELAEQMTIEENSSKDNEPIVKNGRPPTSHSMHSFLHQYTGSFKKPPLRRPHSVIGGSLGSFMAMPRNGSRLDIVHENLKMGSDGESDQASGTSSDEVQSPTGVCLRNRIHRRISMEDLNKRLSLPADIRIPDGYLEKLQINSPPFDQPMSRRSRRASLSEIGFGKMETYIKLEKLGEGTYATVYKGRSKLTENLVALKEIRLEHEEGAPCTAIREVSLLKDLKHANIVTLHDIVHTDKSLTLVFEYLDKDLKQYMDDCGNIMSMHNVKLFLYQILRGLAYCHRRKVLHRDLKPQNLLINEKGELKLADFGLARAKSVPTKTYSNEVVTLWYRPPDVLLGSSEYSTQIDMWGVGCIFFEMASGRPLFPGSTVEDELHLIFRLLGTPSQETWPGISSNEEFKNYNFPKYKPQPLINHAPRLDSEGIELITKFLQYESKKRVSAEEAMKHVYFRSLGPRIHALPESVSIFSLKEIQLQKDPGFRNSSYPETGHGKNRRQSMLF
Protocol: as §1

PDGFRB = PDGFRB (Homo sapiens, UniProt P09619)
Protocol: as §1

PIK3CA(I800L) = PIK3CA(I800L) (Homo sapiens, UniProt P42336, I800L)
Protocol: as §1

PIP5K1A = PIP5K1A (Homo sapiens, UniProt Q99755)
Protocol: as §1

PKAC-alpha = biological target: T8, PKAC-alpha (Homo sapiens, UniProt P17612)
T8 construct: gene PRKACA
Protocol: as §1

PKAC-beta = biological target: T9, PKAC-beta (Homo sapiens, UniProt P22694)
T9 construct: gene PRKACB
Protocol: as §1

PRKCD = PRKCD (Homo sapiens, UniProt Q05655)
Protocol: as §1

TEC = TEC (Homo sapiens, UniProt P42680)
Chain of TEC (P42680 whole entry): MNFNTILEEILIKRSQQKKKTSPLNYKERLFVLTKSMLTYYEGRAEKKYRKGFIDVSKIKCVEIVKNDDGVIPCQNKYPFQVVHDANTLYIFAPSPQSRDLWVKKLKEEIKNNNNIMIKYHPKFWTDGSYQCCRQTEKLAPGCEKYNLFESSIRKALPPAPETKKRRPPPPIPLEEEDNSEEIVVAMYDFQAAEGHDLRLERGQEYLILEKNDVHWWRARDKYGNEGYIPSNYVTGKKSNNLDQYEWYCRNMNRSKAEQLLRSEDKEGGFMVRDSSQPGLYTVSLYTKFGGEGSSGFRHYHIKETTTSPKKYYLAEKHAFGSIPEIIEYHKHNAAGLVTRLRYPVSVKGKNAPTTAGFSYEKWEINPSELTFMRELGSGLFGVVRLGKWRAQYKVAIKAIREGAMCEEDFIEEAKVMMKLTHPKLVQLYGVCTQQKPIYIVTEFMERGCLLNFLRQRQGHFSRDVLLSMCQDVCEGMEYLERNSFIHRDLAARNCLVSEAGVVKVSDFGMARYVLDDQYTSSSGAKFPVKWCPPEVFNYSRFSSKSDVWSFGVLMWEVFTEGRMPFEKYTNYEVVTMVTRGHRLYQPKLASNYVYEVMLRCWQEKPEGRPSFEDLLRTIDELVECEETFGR
Protocol: as §1

[O-][S@@+](Cc1cncs1)C(c1ccccc1)c1ccccc1 [S-CE-123, (S)-5-((Benzhydrylsulfinyl)Methyl)Thiazole]
remaining binding at 2.8 µM (BMPR1B): 100%
remaining binding at 2.8 µM (BMX): 57%
remaining binding at 2.8 µM (CDK3): 100%
remaining binding at 2.8 µM (CDK4-cyclinD3): 85%
remaining binding at 2.8 µM (CSNK1D): 100%
remaining binding at 2.8 µM (EGFR(G719C)): 74%
remaining binding at 2.8 µM (FLT3(D835H)): 58%
remaining binding at 2.8 µM (FLT4): 100%
remaining binding at 2.8 µM (IKK-alpha): 100%
remaining binding at 2.8 µM (IRAK3): 96%
remaining binding at 2.8 µM (JNK1): 67%
remaining binding at 2.8 µM (LRRK2): 100%
remaining binding at 2.8 µM (LYN): 83%
remaining binding at 2.8 µM (MAPKAPK2): 99%
remaining binding at 2.8 µM (MEK1): 94%
remaining binding at 2.8 µM (MST4): 100%
remaining binding at 2.8 µM (NEK4): 83%
remaining binding at 2.8 µM (PCTK1): 97%
remaining binding at 2.8 µM (PCTK2): 93%
remaining binding at 2.8 µM (PDGFRB): 99%
remaining binding at 2.8 µM (PIK3CA(I800L)): 84%
remaining binding at 2.8 µM (PIP5K1A): 95%
remaining binding at 2.8 µM (PKAC-alpha): 95%
remaining binding at 2.8 µM (PKAC-beta): 100%
remaining binding at 2.8 µM (PRKCD): 89%
remaining binding at 2.8 µM (TEC): 100%
